What was measured:
[1] = 34-day oral dosing in BBZDR rats (obesity and Type II diabetes model): body weight and metabolic parameters; format: in vivo; details: for Adipose Mass / Adipose Mass, percent of placebo response / Core Temperature / Core Temperature, percent of placebo response / Food Consumption / Food Consumption, percent of placebo response / Incidence of Glycosuria (Days) / Incidence of Glycosuria (Days), incidence rate / Psoas Mass / Psoas Mass, percent of placebo response / Water Consumption / Water Consumption, percent of placebo response / Incidence of Diabetes: 34 days; for Incidence of Diabetes: animals
From the text: The effects of Compound HE on body weight and metabolism were studied further in the BBZDR rat, a genetic model of obesity and Type II diabetes (Biomedical Research Models, Inc, Worcester, Mass.). BBZDR rats are a cross between the BBDR/W or strain and the fa/fa rat. In BBZDR rats, diabetes occurs in 98% of obese males at an average age of onset of 68±2 days. […] The pancreatic islets of the young obese diabetic males are profoundly enlarged with β cell hyperplasia and mild fibrosis. Studies of pancreatic sections immunostained for insulin and the GLUT-2 glucose transporter reveal focal reduction in β cell insulin content and a generalized reduction in GLUT-2 staining of β cell surface membranes. Lymphocytic insulitis is not detected in either lean or obese rats. In the absence of lymphopenia and autoimmunity, the lean BBZDR rats never become diabetic, and their pancreatic islets are normal in all respects.
Compound HE was administered to male BBZDR rats (48–60 days of age) via oral gavage for a period of 34 days. There were three treatment groups, each with 6 rats/group: a) placebo (1% carboxy methyl cellulose [CMC]), b) Compound HE at 100 mg/kg/day in 1% CMC, and c) Compound HE at 300 mg/kg/day in 1% CMC. The rats were gavaged twice daily for the entire period of the study. Body weight, food intake, fluid intake, and core body temperature were monitored on a daily basis. In addition, the rats were observed twice daily for any gross behavioral/phenotypic changes. Early in the study, two animals in the 300 mg/kg/day-dose group died from trauma secondary to oral gavage (confirmed during necropsy) and were excluded from all analyses.
On Day 21, after an overnight fast, whole blood, serum and plasma samples were collected from anesthetized animals. Prior to the termination of the study, tissue and plasma samples were collected from overnight-fasted animals for histological and biochemical analyses.

[2] = Effect on appetite: food consumption in ICR mice; details: 100 mg/kg oral

For `CC(C)CC(N[C@@H](Cc1cncn1Cc1cc(Cl)cc(Cl)c1)C(=O)O)C(=O)O` (single isomer, unassigned) [HE, 2-[1-Carboxy-2-[3-(3,5-dichloro-benzyl)-3H-imidazol-4-yl]-ethylamino)4-methyl-pentanoic acid], the “fluid intake, less than placebo” value ([1]; 100 mg-treated group) was 5%, the “food intake, less than placebo” value ([1]; 100 mg-treated group) was 5% and the “Fasted Glucose, Day 34, percent of placebo response” value ([1]; 100 mg/kg/day oral gavage) was “(100%)”. The “Fasted Insulin, Day 34” value ([1]; 100 mg/kg/day oral gavage) was 8.4 ± 7.0 ng/mL, the “Fasted Insulin, Day 34, percent of placebo response” value ([1]; 100 mg/kg/day oral gavage) was “(62%)^a” and the “Fasted Leptin, Day 34” value ([1]; 100 mg/kg/day oral gavage) was 99 ± 22 ng/mL. The “Fasted Leptin, Day 34, percent of placebo response” value ([1]; 100 mg/kg/day oral gavage) was “(102.7%)”, the “Fasted Total Cholest., Day 34” value ([1]; 100 mg/kg/day oral gavage) was 117 ± 9 mg/dL and the “Fasted Total Cholest., Day 34, percent of placebo response” value ([1]; 100 mg/kg/day oral gavage) was “(88%)”. The “Total Fasted Triglyc., Day 34” value ([1]; 100 mg/kg/day oral gavage) was 409 ± 6 mg/dL, the “Total Fasted Triglyc., Day 34, percent of placebo response” value ([1]; 100 mg/kg/day oral gavage) was “(82%)” and the “Weight Gain thru Day 34” value ([1]; 100 mg/kg/day oral gavage) was 123 ± 3.4 g. For the same compound, the “Weight Gain thru Day 34, percent of placebo response” value ([1]; 100 mg/kg/day oral gavage) was “(83.9%)”, the “Adipose Mass” value ([1]; 100 mg/kg/day oral gavage) was 48.03 ± 1.86 g and the “Adipose Mass, percent of placebo response” value ([1]; 100 mg/kg/day oral gavage) was “(94%)”. The “Core Temperature” value ([1]; 100 mg/kg/day oral gavage) was 98.4 ± 0.13 F, the “Core Temperature, percent of placebo response” value ([1]; 100 mg/kg/day oral gavage) was “(100%)” and the “Food Consumption” value ([1]; 100 mg/kg/day oral gavage) was 1283 ± 50.3 g. For the same compound, the “Food Consumption, percent of placebo response” value ([1]; 100 mg/kg/day oral gavage) was “(94.4%)”, the “Incidence of Glycosuria (Days)” value ([1]; 100 mg/kg/day oral gavage) was 31/198 and the “Incidence of Glycosuria (Days), incidence rate” value ([1]; 100 mg/kg/day oral gavage) was “(15.7%)”. The “Psoas Mass” value ([1]; 100 mg/kg/day oral gavage) was 1.30 ± 0.09 g, the “Psoas Mass, percent of placebo response” value ([1]; 100 mg/kg/day oral gavage) was “(113%)” and the “Water Consumption” value ([1]; 100 mg/kg/day oral gavage) was 1388 ± 73.5 mL. The “Water Consumption, percent of placebo response” value ([1]; 100 mg/kg/day oral gavage) was “(94.6%)”, the “Incidence of Diabetes” value ([1]; 100 mg/kg/day oral gavage) was 2/6 and the “fluid intake, less than placebo” value ([1]; 300 mg-treated group) was 15%. For the same compound, the “food intake, less than placebo” value ([1]; 300 mg-treated group) was 8%, the “Fasted Glucose, Day 34, percent of placebo response” value ([1]; 300 mg/kg/day oral gavage) was “(94%)” and the “Fasted Insulin, Day 34” value ([1]; 300 mg/kg/day oral gavage) was 7.7 ± 4.1 ng/mL. The “Fasted Insulin, Day 34, percent of placebo response” value ([1]; 300 mg/kg/day oral gavage) was “(57%)^a”, the “Fasted Leptin, Day 34” value ([1]; 300 mg/kg/day oral gavage) was 92 ± 5.3 ng/mL and the “Fasted Leptin, Day 34, percent of placebo response” value ([1]; 300 mg/kg/day oral gavage) was “(76%)”. The “Fasted Total Cholest., Day 34” value ([1]; 300 mg/kg/day oral gavage) was 104 ± 5 mg/dL, the “Fasted Total Cholest., Day 34, percent of placebo response” value ([1]; 300 mg/kg/day oral gavage) was “(78%)” and the “Total Fasted Triglyc., Day 34” value ([1]; 300 mg/kg/day oral gavage) was 414 ± 23 mg/dL. For the same compound, the “Total Fasted Triglyc., Day 34, percent of placebo response” value ([1]; 300 mg/kg/day oral gavage) was “(82%)”, the “Weight Gain thru Day 34” value ([1]; 300 mg/kg/day oral gavage) was 125 ± 8.3 g and the “Weight Gain thru Day 34, percent of placebo response” value ([1]; 300 mg/kg/day oral gavage) was “(82.5%)”. For the same compound, the “Adipose Mass” value ([1]; 300 mg/kg/day oral gavage) was 48.43 ± 0.55 g, the “Adipose Mass, percent of placebo response” value ([1]; 300 mg/kg/day oral gavage) was “(94%)” and the “Core Temperature” value ([1]; 300 mg/kg/day oral gavage) was 98.4 ± 0.20 F. For the same compound, the “Core Temperature, percent of placebo response” value ([1]; 300 mg/kg/day oral gavage) was “(100%)”, the “Food Consumption” value ([1]; 300 mg/kg/day oral gavage) was 1249 ± 26.8 g and the “Food Consumption, percent of placebo response” value ([1]; 300 mg/kg/day oral gavage) was “(91.9%)”. The “Incidence of Glycosuria (Days)” value ([1]; 300 mg/kg/day oral gavage) was 12/162, the “Incidence of Glycosuria (Days), incidence rate” value ([1]; 300 mg/kg/day oral gavage) was “(7.4%)” and the “Psoas Mass” value ([1]; 300 mg/kg/day oral gavage) was 1.21 ± 0.10 g. The “Psoas Mass, percent of placebo response” value ([1]; 300 mg/kg/day oral gavage) was “(105%)”, the “Water Consumption” value ([1]; 300 mg/kg/day oral gavage) was 1271 ± 101.7 mL and the “Water Consumption, percent of placebo response” value ([1]; 300 mg/kg/day oral gavage) was “(86.7%)”. For the same compound, the “Incidence of Diabetes” value ([1]; 300 mg/kg/day oral gavage) was 1/4, the “gross or histomorphological adverse effects” value ([1]; 34 consecutive days of oral dosing) was “No gross or histomorphological adverse effects” and the “gross abdominal adipose and psoas muscle mass and core body temperature, change between groups” value ([1]; all three groups) was “no changes”. For the same compound, the “plasma levels of insulin, total cholesterol and triglycerides compared to placebo” value ([1]; both dose groups) was “lower”, the “body weight gain over the 34 days, less than placebo” value ([1]; both dose groups (100 and 300 mg/kg/day)) was “approximately 18%” and the “statistical significance of the changes versus placebo” value ([1]; oral administration for 34 days) was “not statistically significant”. The “reduction of food intake compared to vehicle” value ([2]; 1 hr after administration) was “about 40%” and the “reduction of food intake compared to vehicle” value ([2]; 3 hr after administration) was “about 18%”.

From patent US7045532B2 (Millennium Pharmaceuticals, Inc., priority 1999, dated 2006)
